Data on two molecules can be found in patent US4113953A, “2-Nitroimidazole derivatives” (Gruppo Lepetit S.p.A., priority 1976, dated 1978).

In one data set the test system is Trichomonas vaginalis. In words: in vivo activity against Trichomonas vaginalis (ED50, per os, mice) and therapeutic index. To be noted: for ED50: po, Trichomonas vaginalis. The text has this:
(§1) The inventive compounds have very interesting antimicrobial and amoebicidal utilities which are ascertained through the usual and well known in vitro tests. Moreover, they display an outstanding in vivo activity against Trichomonas vaginalis, a protozoan which is responsible for itching and other painful and troublesome diseases of the vaginal tract. Their in vivo activity, expressed as an ED50 value, is better than that of other known 2-nitroimidazole derivatives, and their activity is, moreover, coupled with a very low toxicity, expressed as an LD50 value. These properties indicate that the compounds of the invention are very promising anti-Trichomonas agents both from the effectiveness and the safety standpoint, owing to their […] and their high therapeutic indexes (T.I.). Since a therapeutic index is expressed by the following ratio: [formula] it is clear that the higher the T.I., the safer a drug is.
In the following Table, results representative of the inventive compounds are reported.

Data set [1] in a line: toxicity (LD50, per os, mice). The data set is classed as in vivo.
Excerpt: as §1

The term ED50 denotes the midpoint of the dose-response relation. As a reminder, the LD50 is the dose expected to kill half of the subjects tested. High values mean lower toxicity, low ones greater toxicity. `Cc1ncc([N+](=O)[O-])n1CCO` [metronidazole, 1-(2-hydroxyethyl)-2-methyl-5-nitroimidazole, reference compound]: in the data set with Trichomonas vaginalis (per os, mice), the “T.I. (LD50/ED50)” value came to 658 and the ED50 stood at 5.77 mg/kg. Besides, in data set [1], the LD50 was 3800 mg/kg.
Take `Cn1c(C(C)(C)OC(=O)Oc2ccccc2)cnc1[N+](=O)[O-]` [Example 1, α, α,1-Trimethyl-2-nitroimidazole-5-methanol phenylcarbonate]: in the data set with Trichomonas vaginalis (per os, mice), the “T.I. (LD50/ED50)” value is listed as 1969 and the ED50 was 1.65 mg/kg. Further, the “T.I. compared with metronidazole, in words” value in the data set with Trichomonas vaginalis (vs metronidazole, LD50/ED50) is on record as “better T.I. than metronidazole”. Further, the “ED50 compared with metronidazole, in words” value in the data set on Trichomonas vaginalis (vs metronidazole, per os, mice) is reported as “better ED50”. This molecule also returned an LD50 in data set [1] of 3250 mg/kg.
